In PMC6756013, “B591, a novel specific pan-PI3K inhibitor, preferentially targets cancer stem cells” (Oncogene, 2019):

How the values were obtained:
[1] = tested on: MDA-MB-231 and SUM-159PT monolayer and mammosphere cells; assay: Proliferation inhibition of monolayer versus mammosphere cells; type: cell-based, human
Method: The proliferation inhibitory activities of B591 were compared between monolayer and mammosphere cells.
(§1) Cells were treated with indicated agents for 48 h, and cells were harvested and processed for apoptosis assay using the PE-Annexin V/7-AAD Apoptosis Detection Kit. d Representative flow cytometry plots of apoptosis inducing activity of B591 (10 μM) and paclitaxel (10 nM) on monolayer and mammosphere MDA-MB-231 cells. e B591 preferentially targeted CD44^high/CD24^low cells. Cells were treated with B591 or paclitaxel for 2 days. Following a 4-day recovery period, cells were co-stained with CD44 and CD24 antibodies and subjected to FACS analysis. Representative flow cytometry plots show the effect of B591 on CD44^high/CD24^low population in MDA-MB-231 cells in vitro. f B591 decreased mammosphere forming efficiency. Primary MDA-MB-231 mammospheres were treated with B591 or paclitaxel for 48 h. Results of the secondary mammosphere-formation assay are shown. Scale bar represents 40 μm. g B591 decreased the expression of CSC markers in MDA-MB-231 cells. Cells were treated with B591 or paclitaxel for 2 days. […] They label a gated population in plots with axes CD44 and CD24. / Panel E: DMSO is the vehicle control. Its printed value is included all the same.

[2] = tested on: MDA-MB-231 and SUM-159PT monolayer and mammosphere cells; assay: Apoptosis of monolayer versus mammosphere cells (PE-Annexin V/7-AAD); type: cell-based, human; conditions: 48 h
Method: as §1
Supplementary Fig. S10. B591 preferentially targets CSCs. […] Following a 4-day recovery period, the expression of CSC markers was analyzed with western blot analysis.

[3] = tested on: MDA-MB-231 and SUM-159PT mammospheres; assay: Secondary mammosphere-formation assay; type: cell-based, human; conditions: primary mammospheres treated 48 h, then passaged
Method: Cells were treated with indicated agents for 48 h, and cells were harvested and processed for apoptosis assay using the PE-Annexin V/7-AAD Apoptosis Detection Kit. d Representative flow cytometry plots of apoptosis inducing activity of B591 (10 μM) and paclitaxel (10 nM) on monolayer and mammosphere MDA-MB-231 cells. e B591 preferentially targeted CD44^high/CD24^low cells. Cells were treated with B591 or paclitaxel for 2 days. Following a 4-day recovery period, cells were co-stained with CD44 and CD24 antibodies and subjected to FACS analysis. Representative flow cytometry plots show the effect of B591 on CD44^high/CD24^low population in MDA-MB-231 cells in vitro. f B591 decreased mammosphere forming efficiency. Primary MDA-MB-231 mammospheres were treated with B591 or paclitaxel for 48 h. Results of the secondary mammosphere-formation assay are shown. Scale bar represents 40 μm. g B591 decreased the expression of CSC markers in MDA-MB-231 cells. Cells were treated with B591 or paclitaxel for 2 days. […]
In the mammosphere assay, MDA-MB-231 (Fig. 3f) and SUM-159PT (Supplementary Fig. S10D) cells were treated with B591 or paclitaxel, and the mammospheres were collected and subsequently passaged. Secondary Mammosphere-forming activity was determined, which reflects the self-renewal capability of CSCs. […]

SUM-159PT cells = assay: Mammosphere formation after paclitaxel pre-treatment; type: cell-based; conditions: 8 nM Paclitaxel or 8 nM Paclitaxel plus 5 μM B591 for 24 h
Method: (§2) Fig. 6 B591 reduces breast tumor metastasis and recurrence. a Representative images show the effect of B591 (8 mg/kg) on lung metastasis of 4T1 cells, and data from six mice were plotted. b SUM-159PT cells were respectively treated with the indicated agents (8 nM Paclitaxel, 8 nM Paclitaxel plus 5 μM B591) for 24 h, the cells were then cultured for mammospheres. Representative images were shown, and data from two independent experiments were plotted. c–f SUM-159PT xenografts (n = 7) were treated with 4 mg/kg Paclitaxel, or 10 mg/kg B591, or both for 2 weeks, then ended the treatment and waited for tumor recurrence. Tumor volume (c) and body weight (d) were measured every 2 days after treatment, and tumors were photographed (e) and weighted (f) at the end of the experiment. ^*p < 0.05, ^**p < 0.01 versus indicated groups
Based on the finding that B591 preferentially targets CSCs, we supposed that by eliminating the breast CSCs, B591 might delay breast tumor recurrence after initial treatment with chemotherapy drugs. Paclitaxel is a first-line chemotherapeutic agent used for breast cancer therapy. SUM-159PT cells were pre-treated with paclitaxel, and then the cells remaining alive were cultured for mammospheres.

[4] = tested on: SUM-159PT orthotopic xenografts; assay: Tumor recurrence study in SUM-159PT xenografts; type: in vivo, NOD/SCID mice; conditions: paclitaxel 4 mg/kg, B591 10 mg/kg, i.p., 2 weeks, then 3 weeks recurrence
Method: as §2
In the tumor recurrence study, orthotopic xenografts were established with 5 × 10^6 SUM-159PT cells. When tumor volume reached about 50 mm^3, mice were randomly divided into four groups for treatment with vehicle, 4 mg/kg Paclitaxel, 10 mg/kg B591, and combination of 4 mg/kg Paclitaxel plus 10 mg/kg B591 (i.p.). Treatment was stopped after 2 weeks, and the tumors were allowed for recurrence for 3 weeks. Tumor volume and the body weight of mice were measured during the experiments. In the end of treatment, the mice were killed, and the tumor tissues were dissected and weighted.

[5] = tested on: PI3K/Akt signaling in MDA-MB-231 and SUM-159PT cells; assay: Western blot of PI3K/mTOR signaling (Supplementary Fig. S5A); conditions: 5 h
[6] = tested on: phosphorylation of Akt and ERK in RD cells; assay: Immunoblotting of feedback activation of Akt and ERK; type: cell-based, human; conditions: up to 24 h, B591 10 μM
Method: Fig. 2 B591 inhibits PI3K/Akt pathway in multiple cancer cell lines. a Representative images of Akt1 redistribution in IGF-1-treated cells in the absence or presence of B591. Scale bar represents 10 μm. Arrows indicate IGF-1-mediated membrane translocation detected by the image analysis algorithm. b Inhibition of mTORC1 and mTORC2 signaling in multiple cancer cell lines, exposed for 5 h to increasing concentrations of B591. c HepG2 cells were treated with DMSO or 20 μM of B591 for 5 h. Immunofluorescence (red) intensity reflects eIF4E subcellular distribution. Cells were visualized with high content reader. Representative images are shown, and scale bar represents 50 μm. d Nuclear-to-cytoplasmic ratio of eIF4E in five cancer cell lines was determined via high content reader. e The phosphorylation of AKT and ERK was determined by immunoblotting in RD cells in the presence of 10 μM of B591 after indicated time of exposure. f Inhibition of the phosphorylation of AKT and ERK in RD cells treated with B591, PI-103 or Rapamycin for 24 h was determined by immunoblotting
Despite a significant efficacy in preclinical models, the clinical tumor response to mTORC1 inhibitors, such as rapalogs, is modest. […]

| SMILES | Proliferation inhibitory activity, mammosphere versus monolayer cells [1] | Apoptosis induction, mammosphere versus monolayer populations [2] | Secondary mammosphere-forming ability [3] | Formation of mammospheres / paclitaxel-enriched CSCs (SUM-159PT cells) | Tumor growth and regrowth after end of treatment [4] | Effect on PI3K/Akt, mTORC1 and mTORC2 signaling [5] | Phosphorylation of Akt and ERK [6] |
| --- | --- | --- | --- | --- | --- | --- | --- |
| CC(=O)O[C@H]1C(=O)[C@@]2(C)[C@H]([C@H](OC(=O)c3ccccc3)[C@]3(O)C[C@H](OC(=O)[C@H](O)[C@@H](NC(=O)c4ccccc4)c4ccccc4)C(C)=C1C3(C)C)[C@]1(OC(C)=O)CO[C@@H]1C[C@@H]2O [paclitaxel, reference compound] | mammosphere cells were resistant | induced less apoptosis of mammosphere populations than monolayer populations | increased | increased the formation of mammospheres | induced initial tumor remission, but these tumors regrew quickly after termination of paclitaxel therapy | did not show any effect | – |
| CO[C@H]1C[C@@H]2CC[C@@H](C)[C@@](O)(O2)C(=O)C(=O)N2CCCC[C@H]2C(=O)O[C@H]([C@H](C)C[C@@H]2CC[C@@H](O)[C@H](OC)C2)CC(=O)[C@H](C)/C=C(\C)[C@@H](O)[C@@H](OC)C(=O)[C@H](C)C[C@H](C)/C=C/C=C/C=C/1C [rapamycin, reference compound] | – | – | – | – | – | – | induced a hyper-activation of Akt and increased ERK phosphorylation |
| Oc1cccc(-c2nc(N3CCOCC3)c3oc4ncccc4c3n2)c1 [PI-103] | – | – | – | – | – | inhibited PI3K downstream mTORC1 and mTORC2 signaling | – |
